# According to patent US20100004156A1, “Small Compounds That Correct Protein Misfolding and Uses Thereof” (priority 2005, published 2010):
# Where a SMILES comes first, the peptide text is derived from it. The star is where a group is joined. Cbz = O=C(OCc1ccccc1)*
# Assays:
# mutant P23H opsin = experiment: Recovery of correctly folded P23H rhodopsin from tetracycline-inducible HEK293 cells (immunoaffinity purification, absorbance at 500 nm); type: cell-based; conditions: for recovery of folded rhodopsins: in the presence of 11-cis-retinal, statement covers the rhodopsins of Table 1 (P23H and WT)
# Procedure: (§1) Mutant P23H and wild-type opsins were expressed separately in tetracycline-inducible stable HEK293 cell lines in the presence of 11-cis retinal and various inhibitors. At forty-eight hours, the folded proteins were immununoaffinity purified and quantitated by UV-visible spectroscopy. The total amount of opsin protein was assayed at 280 nm. The amount of rhodopsin present in a biochemically functional conformation was assayed at 500 nm. Immunofluorescence microscopy was also performed to determine the cellular location of the proteins.
# (§2) Stable wild-type and P23H opsin expressing HEK293 cell lines were generated in the Flp-In T-Rex system (Invitrogen). The BEK293 cells were grown in DMEM high glucose media supplemented with 10% fetal bovine serum, antibiotic-antimycotic solution, 5 μg/ml blasticidin and hygromycin at 37° C. in the presence of 8% CO2.
# (§3) The opsin expressing HEK293 cell lines were allowed to reach confluence and were induced with 1 μg/ml tetracycline after a change of media. 10 μM 11-cis retinal was immediately added after induction under a red light, and inhibitors were added concurrently at the concentrations shown in Table 2 (below).
# The plates were incubated for forty-eight hours. 10 uM of retinal was provided twenty-four hours after the first application, under red light.
# Forty-eight hours after induction and inhibitor administration the HEK293 cells were harvested and rhodopsin was purified essentially as described in Noorwez et. al. (J Biol. Chem. 2004 Apr. 16; 279(16):16278-84). Spectrophotometric scans were taken in a Varian Cary 50 spectrophotometer.
# P23H opsin = conditions: previous studies, Noorwez et al. J Biol Chem 2003; cited from earlier work
# wild-type opsin = experiment: Recovery of wild-type rhodopsin from tetracycline-inducible HEK293 cells (immunoaffinity purification, absorbance at 500 nm); type: cell-based; conditions: 11-cis-retinal alone added to media of cells expressing wild-type opsin
# Procedure: as §1, §2, §3
# The plates were incubated for forty-eight hours. 10 uM of retinal was provided twenty-four hours after the first application, under red light. […]
Compound,recovery of folded rhodopsins (mutant P23H opsin),in vivo folding and stabilization of P23H opsin (P23H opsin),other results
Cl.N [Ammonium chloride],increased the recovery,–,–
C[C@H]1CCC/C=C/[C@@H]2C[C@H](O)C[C@H]2[C@H](O)/C=C/C(=O)O1 [Brefeldin A],increased the recovery,–,"increase in the yield of P23H rhodopsin (mutant P23H opsin; HEK293 cells, inhibitor added at induction with 11-cis-retinal, FIG. 4A): 2 fold"
O[C@H]1[C@H](O)[C@@H](O)CN2CC[C@H](O)[C@H]12 [Castanospermine],increased the recovery,–,–
CC1=C(/C=C/C(C)=C/C=C/C(C)=C/C=O)C(C)(C)CCC1 [11-cis-retinal],–,promotes the in vivo folding and stabilization,increase in rhodopsin yield (mutant P23H opsin; 11-cis-retinal alone added to culture medium of cells expressing the P23H mutant): 5-6 fold; effect on rhodopsin yield (wild-type opsin): no effect
CC1=C(/C=C/C(C)=C\C=C\C(C)=C\C=O)C(C)(C)CCC1 [9-cis-1-retinal],–,promotes the in vivo folding and stabilization,–
Cn1cnc(N)c2ncnc1-2 [3-methyladenine],increased the recovery,–,–
"CC(C)C[C@@H](C=O)NC(=O)[C@H](CC(C)C)NC(=O)[C@H](CC(C)C)NC(=O)OCc1ccccc1 [MG132, N-carbobenzoyl-Leu-Leu-Leu-CHO] (Cbz-Leu-Leu-Leu-aldehyde)",increased the recovery,–,–
7-ring locked isomer of 11-cis-retinal,–,promotes the in vivo folding and stabilization,–
